# Earlier results in patent US6383513B1, “Compositions comprising cannabinoids” (West Pharmaceutical Services Drug Delivery & Clinical …, priority 1997, dated 2002).
# How the values were obtained:
# [1] = not given; remark: listed apart in the source
compound,measurement,setting,value
"CCCCCc1cc(O)c2c(c1)OC(C)(C)[C@@H]1CCC(C)=C[C@@H]21 [Dronabinol, delta-9-tetrahydrocannabinol]",appetite stimulant effect may continue,after administration,≥ 24 h
same,duration of action for psychoactive effects,after oral administration,4 to 6 h
same,onset of action,after oral administration,0.5 to 1 h
same,peak effect,after oral administration,2 to 4 h
same,absorbed,[1]; after single oral doses,90-95%
same,administered dose that reaches the systemic circulation,"[1]; oral, first pass hepatic metabolism and high lipid solubility",10-20%
